Data: patent publication US11110091B2, “Modulators of toll-like receptors” (Gilead Sciences, Inc., priority 2008, dated 2021)

Each compound was assayed on human Peripheral Blood Mononuclear Cell (PMBC) (assay: PBMC assay: cytokine (IFN-α) stimulation at 24 hours). Details: lowest concentration stimulating IFN-α production at least 3-fold over background, Luminex, read-out: IFN MEC.
Format: cell-based
Procedure: Assays were conducted to determine cytokine stimulation at 24 hours from human Peripheral Blood Mononuclear Cell (PMBC) using the compounds of the present invention. The assays were run in duplicate, with 8-point, half-log dilution curves. The compounds of the present invention were diluted from 10 mM DMSO solution. Cell supernatants are assayed directly for IFNα and 1:10 dilution for TNFα. The assays were performed in a similar fashion as described in Bioorg. […] Specifically, cryo-preserved PBMCs were thawed and seeded 96 well plates with 750,000 cells/well in 190 μL/well cell media. The PBMCs were then incubated for 1 hour at 37° C. at 5% CO2. Then, the compounds of the present invention were added in 10 μL cell media at 8 point, half-log dilution titration. The plates were incubated at 37° C. and 5% CO2 for 24 hours and then spinned at 1200 rpm for 10 min, which was followed by collecting supernatant and storing the same at −80° C. Cytokine secretion was assayed with Luminex and Upstate multi-plex kits, using a Luminex analysis instrument. The IFN-α MEC value for a compound was the lowest concentration at which the compound stimulated IFN-α production at least 3-fold over the background as determined using the assay method above.
For `Cc1ccc(CN2CC(=O)Nc3c(N)nc(OCC4CCCO4)nc32)cn1` (stereo not drawn) [Example 114], the minimal effective concentration was greater than 0.03 µM.
`Nc1nc(OC2CCCC2)nc2c1NC(=O)CN2Cc1ccnc(N2CCOCC2)c1` [Example 69] showed a minimal effective concentration greater than 0.03 µM.
Work on `Nc1nc(NC2CCC2)nc2c1NC(=O)CN2Cc1cccc(CN2CCCC2)c1` [Example 40] yielded a minimal effective concentration of no more than 0.03 µM.
`CCCCNc1nc(N)c2[nH]c(=O)c(=O)n(Cc3cccc(CN4CCCC4)c3)c2n1` [Example 90] gave a minimal effective concentration greater than 0.03 µM.
`CCCCNc1nc(N)c2c(n1)N(Cc1ccnc(N3CCOCC3)c1)CC(=O)N2` [Example 78] was tested, and the minimal effective concentration was greater than 0.03 µM.
With `Nc1nc(OCCn2ccnc2)nc2c1NC(=O)CN2Cc1cccc(CN2CCCC2)c1` [Example 19] the minimal effective concentration was greater than 0.03 µM.
Compound `CCCCOc1nc(N)c2c(n1)N(Cc1ccc(C)nc1)CC(=O)N2` [Example 111] has a minimal effective concentration greater than 0.03 µM.
In the case of `CCCCOc1nc(N)c2c(n1)N(Cc1cccc(CNc3ccccn3)c1)CC(=O)N2` [Example 80], the minimal effective concentration is reported as greater than 0.03 µM.
`Nc1nc(NC2CCCCC2)nc2c1NC(=O)CN2Cc1cccc(CN2CCCC2)c1` [Example 36] was tested, and the minimal effective concentration was greater than 0.03 µM.
`Nc1nc(OCc2ccccc2)nc2c1NC(=O)CN2Cc1cccc(CN2CCCC2)c1` [Example 15] showed a minimal effective concentration greater than 0.03 µM.
`Nc1nc(NCC2CC2)nc2c1NC(=O)CN2Cc1cccc(CN2CCCC2)c1` [Example 39] gave a minimal effective concentration of no more than 0.03 µM.
Work on `Nc1nc(OCCC2CC2)nc2c1NC(=O)CN2Cc1cccc(CN2CCCC2)c1` [Example 9, 4-amino-2-{2′″-(cyclopropyl)ethoxy}-8-[3′-(pyrrolidin-1″-ylmethyl)-benzyl]-5,6,7,8-tetrahydropteridin-6-one] yielded a minimal effective concentration of no more than 0.03 µM.
In the case of `CCCCOc1nc(N)c2c(n1)N(Cc1cccc(CN3CCCC3)c1)C(C)C(=O)N2` (stereo not drawn) [Example 64], the minimal effective concentration is reported as greater than 0.03 µM.
Compound `Nc1nc(OCC2CCOCC2)nc2c1NC(=O)CN2Cc1cccc(CN2CCCC2)c1` [Example 30] has a minimal effective concentration of no more than 0.03 µM.
`CC(C)(C)COc1nc(N)c2c(n1)N(Cc1cccc(CN3CCCC3)c1)CC(=O)N2` [Example 14] gave a minimal effective concentration greater than 0.03 µM.
`COCCOc1nc(N)c2[nH]c(=O)c(=O)n(Cc3ccc(-c4cccc(CN5CCCC5)c4)cc3)c2n1` [Example 95] gave a minimal effective concentration of no more than 0.03 µM.
`Nc1nc(OCCOc2ccccc2)nc2c1NC(=O)CN2Cc1cccc(CN2CCCC2)c1` [Example 23] gave a minimal effective concentration greater than 0.03 µM.
For `Nc1nc(OCC2CCCO2)nc2c1NC(=O)CN2Cc1cccc(CN2CCCC2)c1` (stereo not drawn) [Example 29], the minimal effective concentration was greater than 0.03 µM.
Compound `Nc1nc(N2CCCC2)nc2c1NC(=O)CN2Cc1cccc(CN2CCCC2)c1` [Example 43] has a minimal effective concentration of no more than 0.03 µM.
For `CS(=O)(=O)CCOc1nc(N)c2c(n1)N(Cc1cccc(CN3CCCC3)c1)CC(=O)N2` [Example 20], the minimal effective concentration was greater than 0.03 µM.
`Nc1nc(OCC2CCCCC2)nc2c1NC(=O)CN2Cc1cccc(CN2CCCC2)c1` [Example 13] was tested, and the minimal effective concentration was greater than 0.03 µM.
Work on `COCCNc1nc(N)c2c(n1)N(Cc1cccc(CN3CCCC3)c1)CC(=O)N2` [Example 33] yielded a minimal effective concentration greater than 0.03 µM.
`CCCCOc1nc(N)c2c(n1)N(Cc1ccc3c(c1)CN(CC1CC1)CC3)CC(=O)N2` [Example 70] showed a minimal effective concentration of no more than 0.03 µM.
`Nc1nc(OCC2CCCC2)nc2c1NC(=O)CN2Cc1cccc(CN2CCCC2)c1` [Example 8, 4-amino-2-{(cyclopentyl)methoxy}-8-[3′-(pyrrolidin-1″-ylmethyl)-benzyl]-5,6,7,8-tetrahydropteridin-6-one] was tested, and the minimal effective concentration was greater than 0.03 µM.
With `CCCCOc1nc(N)c2c(n1)N(Cc1cccc(CN3CCCC3)c1)C1(CC1)C(=O)N2` [Example 3, 4-Amino-2-n-butoxy-7-(1′″,2′″-ethylidene)-8-[3′-(pyrrolidin-1″-ylmethyl)-benzyl]-5,6,7,8-tetrahydropteridine-6-one] the minimal effective concentration was greater than 0.03 µM.
Compound `CCCC(C)Oc1nc(N)c2c(n1)N(Cc1cccc(CN3CCCC3)c1)CC(=O)N2` (stereo not drawn) [Example 24] has a minimal effective concentration of no more than 0.03 µM.
For `CCCCOc1nc(N)c2c(n1)N(Cc1cccc(CN3CCC(C(=O)OC)CC3)c1)CC(=O)N2` [Example 54], the minimal effective concentration was greater than 0.03 µM.
`CCCCOc1nc(N)c2c(n1)N(Cc1ccnc(N3CCOCC3)c1)CC(=O)N2` [Example 66] gave a minimal effective concentration greater than 0.03 µM.
`CCCCOc1nc(N)c2c(n1)N(Cc1ccc3c(c1)CCN(CC1CC1)C3)CC(=O)N2` [Example 106] was tested, and the minimal effective concentration was greater than 0.03 µM.
In the case of `CC(C)COc1nc(N)c2c(n1)N(Cc1cccc(CN3CCCC3)c1)CC(=O)N2` [Example 10], the minimal effective concentration is reported as greater than 0.03 µM.
`COCCOc1nc(N)c2c(n1)N(Cc1ccc(-c3ccc(CN4CCCC4)cc3)cc1)CC(=O)N2` [Example 98] gave a minimal effective concentration of no more than 0.03 µM.
For `CCC[C@@H](C)Oc1nc(N)c2c(n1)N(Cc1ccc(CN3CCCC3)cc1)CC(=O)N2` [Example 60], the minimal effective concentration was greater than 0.03 µM.
`CCCN(C)C(=O)c1nc(N)c2[nH]c(=O)c(=O)n(Cc3ccc(CN4CCCC4)cc3)c2n1` [Example 93] showed a minimal effective concentration of no more than 0.03 µM.
In the case of `CCCCOc1nc(N)c2c(n1)N(Cc1ccc3c(c1)CCN(CC)C3)CC(=O)N2` [Example 104], the minimal effective concentration is reported as no more than 0.03 µM.
Work on `CCC(CC)Oc1nc(N)c2c(n1)N(Cc1cccc(CN3CCCC3)c1)CC(=O)N2` [Example 25] yielded a minimal effective concentration of no more than 0.03 µM.
`COC[C@H](C)Oc1nc(N)c2c(n1)N(Cc1cccc(CN3CCCC3)c1)CC(=O)N2` [Example 87] gave a minimal effective concentration of no more than 0.03 µM.
`Nc1nc(OCCC(F)(F)F)nc2c1NC(=O)CN2Cc1cccc(CN2CCCC2)c1` [Example 55] was tested, and the minimal effective concentration was no more than 0.03 µM.
`CCCCOc1nc(N)c2c(n1)N(Cc1ccc(-c3ccc(CN4CCCC4)cc3)cc1)CC(=O)N2` [Example 100] was tested, and the minimal effective concentration was no more than 0.03 µM.
`CCCCOc1nc(N)c2c(n1)N(Cc1ccc3c(c1)CN(CC)CC3)CC(=O)N2` [Example 52] was tested, and the minimal effective concentration was no more than 0.03 µM.
Compound `CCCCOc1nc(N)c2c(n1)N(C(C)c1ccc(CN3CCCC3)cc1)CC(=O)N2` (stereo not drawn) [Example 74] has a minimal effective concentration greater than 0.03 µM.
Work on `CCC[C@H](C)Oc1nc(N)c2c(n1)N(Cc1cccc(CN3CCCC3)c1)CC(=O)N2` [Example 59] yielded a minimal effective concentration of no more than 0.03 µM.
`Nc1nc(OCC2CCCO2)nc2c1NC(=O)CN2Cc1ccnc(N2CCOCC2)c1` (stereo not drawn) [Example 67] showed a minimal effective concentration greater than 0.03 µM.
Work on `Nc1nc(OCC2CCOC2)nc2c1NC(=O)CN2Cc1cccc(CN2CCCC2)c1` (stereo not drawn) [Example 17] yielded a minimal effective concentration greater than 0.03 µM.
`CCCCSc1nc(N)c2c(n1)N(Cc1cccc(CN3CCCC3)c1)CC(=O)N2` [Example 26] gave a minimal effective concentration greater than 0.03 µM.
`CCOP(=O)(CCNc1nc(N)c2c(n1)N(Cc1cccc(CN3CCCC3)c1)CC(=O)N2)OCC` [Example 45] was tested, and the minimal effective concentration was greater than 0.03 µM.
In the case of `CCCCOc1nc(N)c2c(n1)N(Cc1cccc(CN3CCCC3)c1)CCC(=O)N2` [Example 50], the minimal effective concentration is reported as greater than 0.03 µM.
`CCCC(C)Oc1nc(N)c2c(n1)N(Cc1ccc(C)nc1)CC(=O)N2` (stereo not drawn) [Example 109] gave a minimal effective concentration greater than 0.03 µM.
`CCCCOc1nc(N)c2[nH]c(=O)c(=O)n(Cc3cccc(CN4CCCC4)c3)c2n1` [Example 83] gave a minimal effective concentration of no more than 0.03 µM.
